Measured values: ChEMBL document CHEMBL3137667, “[Drug-induced liver injury; fourteenth updated edition of the bibliographic database of liver injuries and related drugs]” (Gastroenterol Clin Biol, 2004)

How the values were obtained:
[1] = human
[2] = human; remark: listed apart in the source
[3] = human; remark: listed apart in the source
[4] = Highest frequency of moderate liver toxicity observed during clinical trials, expressed as a percentage. [column '% BIOL' in source]; details: human
[5] = human, serum, 4383 h
[6] = human; remark: listed apart in the source
[7] = human; remark: listed apart in the source
[8] = human; remark: listed apart in the source
[9] = human, serum
[10] = human; remark: listed apart in the source
[11] = human; remark: listed apart in the source
[12] = Highest frequency of acute liver toxicity observed during clinical trials, expressed as a percentage. [column '% AIGUE' in source]; details: human
[13] = human; remark: listed apart in the source
[14] = human, serum; remark: listed apart in the source
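For Hepatotoxicity (association with vascular disease) in this document: count of indexed literature references reporting vascular liver injury in humans, e.g. peliosis hepatitis, hepatic veno-occlusive disease or Budd-Chiari syndrome.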
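For Hepatotoxicity (benign tumour) in this document: value is a count of indexed literature references citing a benign tumour confirmed by histopathology.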
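For Hepatotoxicity (choleostasis) in this document: human cholestatic liver injury, shown by histopathology or by peak ALT or AST elevation over alkaline phosphatase ratio below 2, value counts indexed literature reports.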
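For Hepatotoxicity (chronic liver disease) in this document: chronic liver injury confirmed by histopathology or persistently raised serum aminotransferase activity beyond 6 months, value given as the count of indexed literature references.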
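For Hepatotoxicity (cirrhosis) in this document: value is a count of indexed literature references reporting cirrhosis confirmed by histopathology.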
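For Hepatotoxicity (cytolytic) in this document: human cytolytic liver injury, shown by histopathology or by a ratio above 5 of peak ALT or AST elevation to alkaline phosphatase elevation, value counts indexed references.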
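For Hepatotoxicity (granulomatous hepatitis) in this document: value is a count of indexed literature references reporting granulomatous liver disease confirmed by histopathology.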
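For Hepatotoxicity (malignant tumour) in this document: malignant tumour confirmed by histopathology, value gives the count of indexed literature references reporting it.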
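For Hepatotoxicity (severe hepatitis) in this document: human clinical data: severe hepatitis, meaning potentially life-threatening liver failure or clinically observed cases, the value counts how many indexed literature references report it.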
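For Hepatotoxicity (steatosis) in this document: steatosis confirmed by histopathology, value is the count of indexed references.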

Structure (SMILES)	Hepatotoxicity (granulomatous hepatitis) [1]	Hepatotoxicity (steatosis) [2]	Hepatotoxicity (choleostasis) [3]	Hepatotoxicity (moderate) [4] [%]	Hepatotoxicity (chronic liver disease) [5]	Hepatotoxicity (malignant tumour) [6]	Hepatotoxicity (cirrhosis) [7]	Hepatotoxicity (association with vascular disease) [8]	Hepatotoxicity (acute) [9]	Hepatotoxicity (benign tumour) [10]	Hepatotoxicity (cytolytic) [11]	Hepatotoxicity (acute) [12] [%]	Hepatotoxicity (severe hepatitis) [13]	Hepatotoxicity (moderate) [14]	Hepatotoxicity (moderate) ([4]; Liver) [%]	Hepatotoxicity (acute) ([12]; Liver) [%]	Hepatotoxicity (severe hepatitis) ([13]; Liver)
COc1ccc2cc(CCC(C)=O)ccc2c1 [NABUMETONE]	0	0	0	4.5	0	0	0	0	1	0	1	0	0	8			
CCC(=O)NS(=O)(=O)c1ccc(-c2c(-c3ccccc3)noc2C)cc1 [PARECOXIB]	0	0	0	6.5	0	0	0	0	0	0	0	0	0	1			
Cc1ccc2c(-c3ccccc3)nc(=O)n(C(C)C)c2c1 [PROQUAZONE]	0	0	0	1.8	0	0	0	0	0	0	0	0	0	1			
CO/N=C(\C(=O)N[C@@H]1C(=O)N2C(C(=O)O)=C(CSc3nc(C)c(CC(=O)O)s3)CS[C@H]12)c1csc(N)n1 [CEFODIZIME]	0	0	0	44.4	0	0	0	0	0	0	0	0	0	51			
C[C@H]1COc2c(C3(N)CC3)c(F)cc3c(=O)c(C(=O)O)cn1c23 [PAZUFLOXACIN]	0	0	0	11.1	0	0	0	0	0	0	0	0	0	31			
Cc1oc(=O)oc1CN1CCN(c2cc3c(cc2F)c(=O)c(C(=O)O)c2n3C(C)S2)CC1 (stereo not drawn) [PRULIFLOXACIN]	0	0	0	33.3	0	0	0	0	0	0	0	0	0	25			
O=C(O)c1ccccc1Nc1cccc(C(F)(F)F)c1 [FLUFENAMIC ACID]	0	0	0	0	0	0	0	0	0	0	0	0	0	1			
CN1C(CSCC(F)(F)F)Nc2cc(Cl)c(S(N)(=O)=O)cc2S1(=O)=O (stereo not drawn) [POLYTHIAZIDE]	0	0	1	0	0	0	0	0	1	0	1	0	0	0			
O=C(Cc1cccs1)N[C@@H]1C(=O)N2C(C(=O)[O-])=C(C[n+]3ccccc3)CS[C@H]12 [CEPHALORIDINE]	0	0	0	0	0	0	0	0	0	0	0	0	0	1			
CCOC(=O)C1=C(C)NC(C)=C(C(=O)OC)C1c1cccc(Cl)c1Cl (stereo not drawn) [FELODIPINE]	0	0	0		0	0	0	0	0	0	0			3	20	0	0
Cc1ncc(CNC(=O)N(CCCl)N=O)c(N)n1 [NIMUSTINE]	0	0	0	3.6	0	0	0	0	0	0	0	0	0	2			
C#CC(O)(/C=C/Cl)CC (stereo not drawn) [ETHCHLORVYNOL]	0	0	2	0	0	0	0	0	2	0	0	0	0	0			
